The source made the active and inactive calls. No cut-off for these calls is given here.
How the values were obtained:
Plasmodium falciparum = experiment: Antiplasmodial activity against Plasmodium falciparum K1 infected in erythrocytes assessed as reduction in parasite DNA after 72 hrs by SYBR Green I fluorescence based assay; format: functional, organism-based; conditions: K1, Erythrocyte
[1] = Selectivity index, ratio of CC50 for human HepG2 cells to EC50 for Plasmodium falciparum K1; format: toxicity; conditions: read-out: Ratio CC50/EC50
[2] = Cytotoxicity against human HepG2 cells incubated for 72 hrs by MTT assay; format: toxicity, cell-based
[3] = Inhibition of Plasmodium falciparum PYK-1
[4] = Half-life in mouse liver microsomes; format: ADME, Microsome
[5] = target: Bifunctional dihydrofolate reductase-thymidylate synthase (Plasmodium falciparum K1) (UniProt P13922); experiment: Inhibition of Plasmodium falciparum DHFR
[6] = Lipophilicity, logD of the compound at pH 7.4; format: physicochemical; conditions: buffer
[7] = Half-life in mouse plasma; format: ADME, cell-free

Sequence of Bifunctional dihydrofolate reductase-thymidylate synthase (Plasmodium falciparum K1) (P13922 whole entry, looked up): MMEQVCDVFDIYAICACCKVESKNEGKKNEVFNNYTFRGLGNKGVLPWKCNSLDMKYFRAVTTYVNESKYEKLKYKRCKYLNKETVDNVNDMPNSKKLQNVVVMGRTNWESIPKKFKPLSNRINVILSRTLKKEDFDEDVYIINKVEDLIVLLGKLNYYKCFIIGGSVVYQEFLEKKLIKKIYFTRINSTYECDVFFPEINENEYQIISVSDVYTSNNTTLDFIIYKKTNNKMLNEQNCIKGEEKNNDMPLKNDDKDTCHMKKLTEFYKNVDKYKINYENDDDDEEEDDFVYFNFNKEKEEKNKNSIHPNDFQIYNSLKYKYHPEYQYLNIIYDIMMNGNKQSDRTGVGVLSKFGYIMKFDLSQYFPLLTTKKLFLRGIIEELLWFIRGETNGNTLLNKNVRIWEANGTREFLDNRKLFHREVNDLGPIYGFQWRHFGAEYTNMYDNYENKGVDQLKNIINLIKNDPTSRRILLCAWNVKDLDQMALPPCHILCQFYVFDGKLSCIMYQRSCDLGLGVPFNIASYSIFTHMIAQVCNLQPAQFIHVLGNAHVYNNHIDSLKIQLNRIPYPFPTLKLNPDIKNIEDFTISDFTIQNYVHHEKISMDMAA

EC50 (Plasmodium falciparum)	SMILES	selectivity ratio [1]	other results
0.15 µM	CC(C)(C)OC(=O)NCCCOCCOCCOCCCNCc1ccc2c(Nc3ccc(Cl)cc3Cl)nc(C(Cl)(Cl)Cl)nc2c1	21	CC50 at 72 h [2]: 3.1 µM
	Cc1ccc(C(=O)Nc2ccc(S(=O)(=O)O)c3cc(S(=O)(=O)O)cc(S(=O)(=O)O)c23)cc1NC(=O)c1cccc(NC(=O)Nc2cccc(C(=O)Nc3cc(C(=O)Nc4ccc(S(=O)(=O)O)c5cc(S(=O)(=O)O)cc(S(=O)(=O)O)c45)ccc3C)c2)c1 [SURAMIN]		IC50 [3]: 128 µM
0.6 µM	CC(C)(C)OC(=O)NCCOCCOCCNCc1ccc2c(Nc3ccc(Cl)cc3Cl)nc(C(Cl)(Cl)Cl)nc2c1	32	CC50 at 72 h [2]: 19 µM
	Clc1ccc(Nc2nc(C(Cl)(Cl)Cl)nc3ccccc23)c(Cl)c1		half-life [4]: 18 min; inhibition [5]: Active; logD [6]: 3.6; half-life [7]: > 360 min
0.5 µM	CCN(CC)CCCC(C)Nc1ccnc2cc(Cl)ccc12 (configuration not stated) [CHLOROQUINE]	60	
	O=C(O)C(=O)O [OXALIC ACID]		IC50 [3]: 150 µM
0.004 µM	C[C@H]1[C@H](OC(=O)CCC(=O)O)O[C@@H]2O[C@@]3(C)CC[C@H]4[C@H](C)CC[C@@H]1[C@@]24OO3 [ARTESUNATE]		

SMILES	EC50 (Plasmodium falciparum)	selectivity ratio [1]	other results
C[C@H]1c2cccc(O)c2C(=O)C2=C(O)[C@]3(O)C(=O)C(C(N)=O)=C(O)[C@@H](N(C)C)[C@@H]3[C@@H](O)[C@@H]21 [DOXYCYCLINE ANHYDROUS]	5 µM	4	

Reference: ChEMBL document CHEMBL5550095 (Bioorg Med Chem, 2024)
